Reference: US11717508B2, “Compounds, compositions, and methods for inhibiting bacterial growth” (priority 2016, dated 2023)
Values joined by “and” are separate entries in the source; they are usually repeats but may differ in a detail not shown here. Equal values may be shown once. Read-outs that look alike come from different tables or passages of the source.

Assays:
DosRST regulon = format: cell-based; details: 40 μM, 6 days
CDC1551(ΔdosR) mutant = format: cell-based; details: for log2 Fold change: DosR mutant, HC101A vs DMSO; for Counts per million (CPM): DosR mutant treated with HC101A, replicates 1, 2

C[C@@H]1CC[C@H]2[C@@H](C)C(=O)O[C@@H]3O[C@]4(C)CC[C@@H]1[C@]32OO4 [HC101A, artemisinin, reference compound]
genes inhibited that are not modulated in the CDC1551(ΔdosR) mutant (DosRST regulon): 157 genes
genes downregulated by compound that are also downregulated in the CDC1551(ΔdosR) mutant (DosRST regulon; >2-fold, p<0.05): 85 genes
downregulated genes in CDC1551(ΔdosR) mutant treated with compound (CDC1551(ΔdosR) mutant; 40 μM, 6 days, >2-fold, p<0.05): 69 genes
log2 Fold change (CDC1551(ΔdosR) mutant; gene MT0169 Rv0160c PE): −1.408
log2 Fold change (CDC1551(ΔdosR) mutant; gene MT0258 Rv0244c fadE5): −1.069
log2 Fold change (CDC1551(ΔdosR) mutant; gene MT0273 Rv0260c): −1.854
Counts per million (CPM) (CDC1551(ΔdosR) mutant; gene MT0292 Rv0280 PPE): 31.79 CPM and 16.54 CPM
log2 Fold change (CDC1551(ΔdosR) mutant; gene MT0292 Rv0280 PPE): −1.247
Counts per million (CPM) (CDC1551(ΔdosR) mutant; gene MT0329 Rv0315): 113.2 CPM and 189.1 CPM
log2 Fold change (CDC1551(ΔdosR) mutant; gene MT0329 Rv0315): −1.246
Counts per million (CPM) (CDC1551(ΔdosR) mutant; gene MT0456 Rv0440 groEL2): 5,842.91 CPM and 4,666.11 CPM
log2 Fold change (CDC1551(ΔdosR) mutant; gene MT0456 Rv0440 groEL2): −1.245
Counts per million (CPM) (CDC1551(ΔdosR) mutant; gene MT0483 Rv0467 aceA): 884.5 CPM and 561.1 CPM
log2 Fold change (CDC1551(ΔdosR) mutant; gene MT0483 Rv0467 aceA): −1.499
Counts per million (CPM) (CDC1551(ΔdosR) mutant; gene MT0484): 179.4 CPM and 142.8 CPM
log2 Fold change (CDC1551(ΔdosR) mutant; gene MT0484): −1.278
Counts per million (CPM) (CDC1551(ΔdosR) mutant; gene MT0493 Rv0475): 790.8 CPM and 938.1 CPM
log2 Fold change (CDC1551(ΔdosR) mutant; gene MT0493 Rv0475): −1.077
log2 Fold change (CDC1551(ΔdosR) mutant; gene MT0532 Rv0511 cysG): 1.218
log2 Fold change (CDC1551(ΔdosR) mutant; gene MT0533 Rv0512 hemB): 1.276
log2 Fold change (CDC1551(ΔdosR) mutant; gene MT0583 Rv0557): 1.113
log2 Fold change (CDC1551(ΔdosR) mutant; gene MT0586 Rv0560c): 1.95
log2 Fold change (CDC1551(ΔdosR) mutant; gene MT0658 Rv0630c recB): 1.021
log2 Fold change (CDC1551(ΔdosR) mutant; gene MT0705 Rv0676c mmpL5): 1.881
log2 Fold change (CDC1551(ΔdosR) mutant; gene MT0706 Rv0677c mmpS5): 1.662
log2 Fold change (CDC1551(ΔdosR) mutant; gene MT0706.1 Rv0678): 1.572
log2 Fold change (CDC1551(ΔdosR) mutant; gene MT0772.5 Rv0747 PE_PGRS): 1.043
log2 Fold change (CDC1551(ΔdosR) mutant; gene MT0808 Rv0784): 2.116
Counts per million (CPM) (CDC1551(ΔdosR) mutant; gene MT0901 Rv0878c PPE): 18.57 CPM and 12.14 CPM
log2 Fold change (CDC1551(ΔdosR) mutant; gene MT0901 Rv0878c PPE): −1.047
Counts per million (CPM) (CDC1551(ΔdosR) mutant; gene MT0908 Rv0885): 437.9 CPM and 441.4 CPM
log2 Fold change (CDC1551(ΔdosR) mutant; gene MT0908 Rv0885): −3.4
Counts per million (CPM) (CDC1551(ΔdosR) mutant; gene MT0909 Rv0886 fprB): 103.6 CPM and 55.4 CPM
log2 Fold change (CDC1551(ΔdosR) mutant; gene MT0909 Rv0886 fprB): −3.149
Counts per million (CPM) (CDC1551(ΔdosR) mutant; gene MT0911 Rv0888): 9.416 CPM and 8.907 CPM
log2 Fold change (CDC1551(ΔdosR) mutant; gene MT0911 Rv0888): −1.599
Counts per million (CPM) (CDC1551(ΔdosR) mutant; gene MT0915.1): 9.867 CPM and 9.495 CPM
log2 Fold change (CDC1551(ΔdosR) mutant; gene MT0915.1): −1.202
log2 Fold change (CDC1551(ΔdosR) mutant; gene MT0956 Rv0929 pstC2): 1.037
Counts per million (CPM) (CDC1551(ΔdosR) mutant; gene MT1019 Rv0990c): 62.69 CPM and 83.49 CPM
log2 Fold change (CDC1551(ΔdosR) mutant; gene MT1019 Rv0990c): −1.236
Counts per million (CPM) (CDC1551(ΔdosR) mutant; gene MT1020): 529.4 CPM and 1,032.48 CPM
log2 Fold change (CDC1551(ΔdosR) mutant; gene MT1020): −1.261
log2 Fold change (CDC1551(ΔdosR) mutant; gene MT1073 Rv1043c): 1.069
log2 Fold change (CDC1551(ΔdosR) mutant; gene MT1123 Rv1091 PE_PGRS): 1.015
Counts per million (CPM) (CDC1551(ΔdosR) mutant; gene MT1224 Rv1187 rocA): 50.05 CPM and 29.85 CPM
log2 Fold change (CDC1551(ΔdosR) mutant; gene MT1224 Rv1187 rocA): −1.028
Counts per million (CPM) (CDC1551(ΔdosR) mutant; gene MT1233 Rv1195 PE): 282.5 CPM and 86.53 CPM
log2 Fold change (CDC1551(ΔdosR) mutant; gene MT1233 Rv1195 PE): −1.537
log2 Fold change (CDC1551(ΔdosR) mutant; gene MT1296 Rv1257c): 1.198
log2 Fold change (CDC1551(ΔdosR) mutant; gene MT1297 Rv1258c): 1.744
log2 Fold change (CDC1551(ΔdosR) mutant; gene MT1303 Rv1265): 1.132
Counts per million (CPM) (CDC1551(ΔdosR) mutant; gene MT1385): 26.31 CPM and 28.68 CPM
log2 Fold change (CDC1551(ΔdosR) mutant; gene MT1385): −1.733
log2 Fold change (CDC1551(ΔdosR) mutant; gene MT1424 Rv1380 pyrB): 1.245
log2 Fold change (CDC1551(ΔdosR) mutant; gene MT1425 Rv1381 pyrC): 1.176
log2 Fold change (CDC1551(ΔdosR) mutant; gene MT1426): 1.289
log2 Fold change (CDC1551(ΔdosR) mutant; gene MT1427 Rv1383 car A): 1.005
log2 Fold change (CDC1551(ΔdosR) mutant; gene MT1428 Rv1384 carB): 1.115
log2 Fold change (CDC1551(ΔdosR) mutant; gene MT1429 Rv1385 pyrF): 1.522
Counts per million (CPM) (CDC1551(ΔdosR) mutant; gene MT1430 Rv1386 PE): 77.39 CPM and 47.87 CPM
log2 Fold change (CDC1551(ΔdosR) mutant; gene MT1430 Rv1386 PE): −1.005
Counts per million (CPM) (CDC1551(ΔdosR) mutant; gene MT1431 Rv1387 PPE): 317.7 CPM and 543.6 CPM
log2 Fold change (CDC1551(ΔdosR) mutant; gene MT1431 Rv1387 PPE): −1.201
Counts per million (CPM) (CDC1551(ΔdosR) mutant; gene MT1484 Rv1439c): 6.965 CPM and 6.852 CPM
log2 Fold change (CDC1551(ΔdosR) mutant; gene MT1484 Rv1439c): −1.508
Counts per million (CPM) (CDC1551(ΔdosR) mutant; gene MT1585.1): 293.5 CPM and 393.7 CPM
log2 Fold change (CDC1551(ΔdosR) mutant; gene MT1585.1): −2.24
Counts per million (CPM) (CDC1551(ΔdosR) mutant; gene MT1586 Rv535 Rv1535): 44.69 CPM and 38.96 CPM
log2 Fold change (CDC1551(ΔdosR) mutant; gene MT1586 Rv535 Rv1535): −1.971
log2 Fold change (CDC1551(ΔdosR) mutant; gene MT1620 Rv1569 bioF): 1.182
Counts per million (CPM) (CDC1551(ΔdosR) mutant; gene MT1627): 22.44 CPM and 21.44 CPM
log2 Fold change (CDC1551(ΔdosR) mutant; gene MT1627): −1.25
Counts per million (CPM) (CDC1551(ΔdosR) mutant; gene MT1628 Rv1592c): 334.3 CPM and 332.3 CPM
log2 Fold change (CDC1551(ΔdosR) mutant; gene MT1628 Rv1592c): −1.21
Counts per million (CPM) (CDC1551(ΔdosR) mutant; gene MT1736): 181.3 CPM and 300.2 CPM
log2 Fold change (CDC1551(ΔdosR) mutant; gene MT1736): −1.039
Counts per million (CPM) (CDC1551(ΔdosR) mutant; gene MT1775): 17.8 CPM and 12.82 CPM
